Measured values: PMC12562668, “Targeting NFAT2 for Reversing the P-gp-Mediated Multidrug Resistance to Paclitaxel by Manidipine” (Cancers, 2025)

Tests used:
[1] = molecular target: T1, NFAT2 (Homo sapiens, UniProt O95644); assay: DARTS in A549/T cell lysate with NFAT2 immunoblot; assay type: cell-based
T1 construct: gene NFATC1
T1 sequence (O95644 1-943): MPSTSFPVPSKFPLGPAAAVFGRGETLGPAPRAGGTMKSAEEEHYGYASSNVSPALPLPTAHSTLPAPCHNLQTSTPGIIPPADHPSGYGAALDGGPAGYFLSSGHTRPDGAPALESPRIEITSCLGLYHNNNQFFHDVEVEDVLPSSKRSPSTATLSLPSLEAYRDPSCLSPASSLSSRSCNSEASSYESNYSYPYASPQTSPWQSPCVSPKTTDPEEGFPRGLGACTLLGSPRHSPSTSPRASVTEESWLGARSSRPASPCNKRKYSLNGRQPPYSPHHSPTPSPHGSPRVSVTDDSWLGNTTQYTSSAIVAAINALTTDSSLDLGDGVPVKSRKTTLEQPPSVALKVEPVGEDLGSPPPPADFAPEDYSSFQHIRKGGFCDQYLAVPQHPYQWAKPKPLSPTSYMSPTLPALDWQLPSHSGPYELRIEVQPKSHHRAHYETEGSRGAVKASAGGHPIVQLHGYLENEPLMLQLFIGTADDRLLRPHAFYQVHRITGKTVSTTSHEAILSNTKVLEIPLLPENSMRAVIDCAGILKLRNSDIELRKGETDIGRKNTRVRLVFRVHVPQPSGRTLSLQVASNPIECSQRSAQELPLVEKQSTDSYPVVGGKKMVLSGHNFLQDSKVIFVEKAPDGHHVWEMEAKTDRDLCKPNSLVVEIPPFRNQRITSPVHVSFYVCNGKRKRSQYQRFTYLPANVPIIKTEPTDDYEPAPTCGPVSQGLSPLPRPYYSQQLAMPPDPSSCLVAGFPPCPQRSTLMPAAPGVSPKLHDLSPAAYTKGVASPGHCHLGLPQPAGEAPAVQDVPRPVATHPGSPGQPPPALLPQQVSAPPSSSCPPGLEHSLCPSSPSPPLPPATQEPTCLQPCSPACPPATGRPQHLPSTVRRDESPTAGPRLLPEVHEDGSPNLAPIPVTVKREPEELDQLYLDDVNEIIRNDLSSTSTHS

[2] = molecular target: T2, P-glycoprotein (P-gp) (Homo sapiens, UniProt P08183); assay: Pgp-Glo P-gp ATPase assay: stimulation of basal activity; also inhibition of verapamil-stimulated activity; assay type: biochemical
T2 construct: gene ABCB1
T2 sequence (P08183 whole entry): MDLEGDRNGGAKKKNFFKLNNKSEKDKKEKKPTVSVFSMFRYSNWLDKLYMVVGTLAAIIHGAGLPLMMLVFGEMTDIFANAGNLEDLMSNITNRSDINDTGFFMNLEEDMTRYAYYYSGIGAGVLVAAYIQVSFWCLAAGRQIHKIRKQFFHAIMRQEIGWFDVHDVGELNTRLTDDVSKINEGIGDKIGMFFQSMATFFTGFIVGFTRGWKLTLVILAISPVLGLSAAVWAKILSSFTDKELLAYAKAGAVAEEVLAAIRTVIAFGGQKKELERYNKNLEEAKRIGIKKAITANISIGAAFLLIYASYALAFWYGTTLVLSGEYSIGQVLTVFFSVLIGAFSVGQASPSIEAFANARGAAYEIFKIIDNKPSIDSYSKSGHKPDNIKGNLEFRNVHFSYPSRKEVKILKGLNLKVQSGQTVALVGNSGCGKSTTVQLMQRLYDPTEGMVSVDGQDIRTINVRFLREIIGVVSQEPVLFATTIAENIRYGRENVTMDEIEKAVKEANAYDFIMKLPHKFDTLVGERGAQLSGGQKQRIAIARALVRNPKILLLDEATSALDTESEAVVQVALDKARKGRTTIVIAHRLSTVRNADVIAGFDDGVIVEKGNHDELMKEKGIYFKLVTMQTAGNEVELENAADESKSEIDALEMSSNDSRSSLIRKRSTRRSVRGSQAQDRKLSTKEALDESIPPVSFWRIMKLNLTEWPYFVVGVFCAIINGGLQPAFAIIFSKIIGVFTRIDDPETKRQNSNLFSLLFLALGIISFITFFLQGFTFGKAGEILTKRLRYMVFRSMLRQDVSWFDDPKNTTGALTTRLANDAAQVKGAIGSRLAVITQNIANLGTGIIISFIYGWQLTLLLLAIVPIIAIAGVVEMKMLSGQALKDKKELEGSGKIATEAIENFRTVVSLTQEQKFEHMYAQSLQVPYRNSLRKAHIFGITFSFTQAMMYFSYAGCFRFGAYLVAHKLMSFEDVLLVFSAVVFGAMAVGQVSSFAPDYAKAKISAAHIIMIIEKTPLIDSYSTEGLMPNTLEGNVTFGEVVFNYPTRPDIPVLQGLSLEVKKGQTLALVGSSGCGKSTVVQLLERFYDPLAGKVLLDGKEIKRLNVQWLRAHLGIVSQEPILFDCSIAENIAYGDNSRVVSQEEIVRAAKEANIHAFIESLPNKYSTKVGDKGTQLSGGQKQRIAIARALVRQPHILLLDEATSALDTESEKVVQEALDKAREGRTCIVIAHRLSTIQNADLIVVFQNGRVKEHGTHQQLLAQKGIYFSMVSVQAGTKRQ

Question: Which “DARTS in A549/T cell lysate with NFAT2 immunoblot” value [1] does the source give for `COC(=O)C1=C(C)NC(C)=C(C(=O)OCCN2CCN(C(c3ccccc3)c3ccccc3)CC2)C1c1cccc([N+](=O)[O-])c1` (centres unmarked) [MA, manidipine] here?
Answer: The value was “MA effectively protected the NFAT2 protein from proteolysis (Figure 7F,G), thereby indicating that MA is a ligand of NFAT2”.

Question: And the EC50 [2]?
Answer: Its EC50 is 4.16 µM.
